Test results from US8138357B2, “Compounds and their salts specific to the PPAR receptors and the EGF receptors and their use in the medical field” (Giuliani International Limited, priority 2005, dated 2012).
“Also recorded” adds a separate entry of the source.

Tests used:
HT-29, HT-115 and DLD-1 = assay: Colon cancer cell growth by BrdU assay, three human colon carcinoma cell lines; type: cell-based; settings: 48 h
Description: For this purpose, three human colon carcinoma cell lines (i.e. HT-29, HT-115 and DLD-1) were used. These cell types were selected on the basis of the cyclooxigenase-2 (COX-2) expression. Indeed, HT-115 cells express a biologically active COX-2, HT-29 cells express a non-functional COX-2 isoform, and DLD-1 are COX-2-deficient cells.
(§1) HT-29 and DLD-1 cells were cultured in McCoy and RPMI1640 media respectively, supplemented with 10% fetal bovine serum (FBS), 1% penicillin/streptomycin (P/S) and 50 μg/ml gentamycin. HT-115 were cultured in DMEM medium supplemented with 15% FBS and 1% P/S. Cells were maintained in a humidified incubator at 37° C., in the presence of 5% CO2.
(§2) For cell growth assays, single-cell suspensions were plated at 2×10^3 cells/well (4×10^3 cells/well for HT115) in 96-well culture dishes in medium containing 0.5% FBS and allowed to adhere. The non-adherent cells were then removed, and fresh medium containing 0.5% FBS was added into each well. Cells were cultured in the presence or absence of the specified substances. Each substance was dissolved as a 25 mM stock solution in culture medium containing 0.5% FBS, and the pH of each stock solution was adjusted to 7.4, if necessary, with NaOH. Substances were used at a final concentration ranging from 0.5 to 10 mM. Cell proliferation was determined by measuring the incorporation of 5-bromo-2′-deoxyuridine (BrdU) into DNA using a commercially available cell proliferation kit (Roche Diagnostics™, Monza, Italy). BrdU was added to the cell cultures during the last 6 hours of incubation, and the level of BrdU-positive cells was assessed after 48 h culture by enzyme-linked immunosorbent assay (ELISA).
(§3) Optical density (OD) was determined at 450 nm using an ELISA reader. Experiments were performed in triplicate and the results are reported as the mean±standard deviation (SD).

PPARγ [1] = molecular target: T1, PPARγ (Homo sapiens, UniProt P37231); assay: PPARγ activation, PPRE (2XCYP) luciferase reporter in transfected HT-29 STD cells (Example 8); type: cell-based; settings: 30 mM, 24 hours, HT-29 STD transfected with 2XCYP
T1 construct: HT-29 STD cells were transiently transfected using the Effectene™ transfection reagent; endogenous in cells; host or cells: HT-29 STD (human colon carcinoma)
T1 sequence (P37231 1-505): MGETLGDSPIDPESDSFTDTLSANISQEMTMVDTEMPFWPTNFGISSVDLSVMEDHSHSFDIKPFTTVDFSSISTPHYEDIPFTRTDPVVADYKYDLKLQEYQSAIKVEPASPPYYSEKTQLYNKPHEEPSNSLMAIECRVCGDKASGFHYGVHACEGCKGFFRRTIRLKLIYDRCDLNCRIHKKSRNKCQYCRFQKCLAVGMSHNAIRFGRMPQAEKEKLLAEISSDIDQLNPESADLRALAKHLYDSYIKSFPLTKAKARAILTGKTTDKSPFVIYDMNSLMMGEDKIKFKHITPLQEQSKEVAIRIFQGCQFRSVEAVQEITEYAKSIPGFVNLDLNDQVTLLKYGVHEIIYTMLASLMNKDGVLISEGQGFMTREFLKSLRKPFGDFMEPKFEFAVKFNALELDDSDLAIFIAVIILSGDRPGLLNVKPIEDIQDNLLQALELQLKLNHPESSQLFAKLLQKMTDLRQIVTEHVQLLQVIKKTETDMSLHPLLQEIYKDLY
Description: HT-29 STD cells were transiently transfected using the Effectene™ transfection reagent (Qiagen™) according to instructions from the manufacturer. To test PPARγ activation, we performed transfection with 500 ng of a minimal promoter construct containing two copies of PPRE obtained from the cytochrome p450 4A (2XCYP) (1). The renilla luciferase plasmid ([…]) was also transfected as an internal control for monitoring transfection efficiency and for normalizing the firefly luciferase activity. Transfected cells were left for 48 hours incubation at 37° C. […] The pH of the drug solutions was adjusted to 7.4 with NaOH. Total cell extracts were prepared using the Passive Lysis Buffer (Promega™, Madison, Wis.). Luciferase activity was assayed in 20 μl of the extract using the Promega™ Dual Luciferase assay system according to the manufacturer's protocol. Transfections were assayed in triplicate in at least three separate experiments. The luciferase activity was expressed as fold of the activity obtained in cells treated with the different molecules divided by luciferase activity from non-stimulated cells.

DLD-1 cells = assay: Cell growth by colorimetric BrdU incorporation assay, DLD-1; type: cell-based; settings: Homo sapiens, 48 hours; for inhibition at 500 µM: 0.5 mM; for inhibition at 1000 µM: 1 mM; for inhibition at 2500 µM: 2.5 mM; for inhibition at 5000 µM: 5 mM; for inhibition at 10000 µM: 10 mM
Description: as §1, §2, §3

HT-29 STD cells [2] = assay: Cell proliferation by nuclear Ki-67 immunostaining; type: cell-based; settings: Homo sapiens, 30 mM, 24 h, compared to untreated cells, read-out: inhibition of cell proliferation (Ki-67 staining)
Description: After 24 h of culture, HT-29 STD cells were treated during 24 h with the new molecules 13, 14, 17, 26 and 31, at 30 mM. […] The pH of the drug solutions was adjusted to 7.4 with NaOH. Cells were fixed in PFA 4%, permeabilized in PBS containing 0.1% Triton X-100™ at 4° C. and then incubated with goat normal serum and blocking buffer (1% BSA in PBS) to minimize non-specific adsorption of the antibody. Cell proliferation was assessed by a nuclear Ki-67 staining using mouse monoclonal primary antibody directed against Ki-67 (dilution 1:50 overnight; ZYMED™ Clinisciences™, Montrouge, France). […] Nuclei were stained with Hoescht 33342 solution (0.125 mg/mL) (Sigma-Aldrich™) and visualized under a fluorescence microscope (Leica™, Bensheim, Germany). Negative controls consisted of staining with a non-specific mouse serum instead of the specific antibody. Counts of at least 500 cells/sample were systematically performed blindly in one experiment. The results were expressed as the mean±SEM of the number of stained cells.

[3] = Solubility in drug solutions / culture medium; type: physicochemical; settings: drug solutions for HT-29 experiments, 30 mM, pH 7.4
PPARγ [4] = assay: PPARγ protein expression by western blot in HT-29 cells; type: cell-based, human; settings: 30 mM, 24 hours, HT-29, relative to β-actin
Description: The total proteins were obtained by cell homogenization in an extraction buffer consisting of PBS with 2% Triton™, Phenyl Methyl Sulphonyl Fluoride (PMSF) 100 mM and a classical protease inhibitor cocktail (2). The total proteins were then separated by polyacrylamide gel electrophoresis and electroblotted. Polyvinylidendifluoride (PVDF) membranes were incubated overnight with rabbit polyclonal primary antibody directed against PPARγ (dilution 1/500, TEBU, Le Perray en Yveline, France). β-actin was detected using a rabbit monoclonal primary antibody diluted at 1/10,000 (Sigma). Immunodetection with a secondary peroxidase-conjugated antibody (1/1000, Dako™, Trappes, France) and chemiluminescence was performed according to the manufacturer's protocol (ECL™, Amersham Pharmacia Biotech™, Orsay, France). Optical density values of PPARγ were given for each condition in proportion to the quantity of the internal control β-actin in the same sample (2).

HT-29 STD cells [5] = assay: Detection of apoptosis by TUNEL assay; type: cell-based, human; settings: 30 mM, 24 h
Description: After 24 h of culture, HT-29 STD cells were treated during 24 h with the new molecules 13, 14, 17, 26 and 31, at a concentration of 30 mM. […] The pH of the drug solutions was adjusted to 7.4 with NaOH. Cells undergoing apoptosis were identified by enzymatic labelling of DNA strands using a terminal transferase dUTP nick end labelling assay (TUNEL assay, Roche Diagnostics™, Meylan, France). Counts of at least 500 cells/sample were systematically performed blindly in one experiment. The results were expressed as the mean±SEM of the number of stained cells.

Compound	anti-proliferative effect on colon cancer cell growth (in words) (HT-29, HT-115 and DLD-1; 0.5-10 mM)	reporter gene activity, factor of increase relative to untreated cells (PPARγ [1])	inhibition at 500 µM (DLD-1 cells) [%]	inhibition at 1000 µM (DLD-1 cells) [%]	inhibition at 2500 µM (DLD-1 cells) [%]	inhibition at 5000 µM (DLD-1 cells) [%]	inhibition at 10000 µM (DLD-1 cells) [%]	inhibition at 30000 µM (HT-29 STD cells [2]) [%]	solubility [3]	induction of PPARγ protein levels quantified by western blot (PPARγ [4]) [fold]	cell growth inhibition (HT-29, HT-115 and DLD-1; final concentration 10 mM)	apoptosis, epithelial cells identified by TUNEL (HT-29 STD cells [5]) [%]
Nc1cc2c(c(C(=O)O)c1)OCC2 [compound 17, 5-amino-2,3-dihydrobenzofuran-7-carboxylic acid]	marked anti-proliferative effect	two-fold; also recorded: about twice	0	0	33.3	89.3	90.7	67 to 75	poor solubility	2	–	–
CC(C)Oc1ccc(N)cc1C(=O)O [compound 31, 5-amino-2-isopropoxybenzoic acid]	–	two-fold; also recorded: about twice	0	0	0	8.8	31.7	67 to 75	–	2	significantly inhibited cell growth	80
